These results are taken from publication PMC10893492, “Anticancer Evaluation of Novel Benzofuran–Indole Hybrids as Epidermal Growth Factor Receptor Inhibitors against Non-Small-Cell Lung Cancer Cells” (Pharmaceuticals, 2024).

In this assay the target is epidermal growth factor receptor (EGFR) (Homo sapiens, UniProt P00533). The assay is described as follows: EGFR kinase assay kit (BPS Bioscience) with Kinase-Glo Max luminescence. It is filed as biochemical. (Kinase-Glo measures the ATP left after a reaction by luminescence.)

SMILES strings stand for the structures.

epidermal growth factor receptor (EGFR), sequence (P00533 25-1210): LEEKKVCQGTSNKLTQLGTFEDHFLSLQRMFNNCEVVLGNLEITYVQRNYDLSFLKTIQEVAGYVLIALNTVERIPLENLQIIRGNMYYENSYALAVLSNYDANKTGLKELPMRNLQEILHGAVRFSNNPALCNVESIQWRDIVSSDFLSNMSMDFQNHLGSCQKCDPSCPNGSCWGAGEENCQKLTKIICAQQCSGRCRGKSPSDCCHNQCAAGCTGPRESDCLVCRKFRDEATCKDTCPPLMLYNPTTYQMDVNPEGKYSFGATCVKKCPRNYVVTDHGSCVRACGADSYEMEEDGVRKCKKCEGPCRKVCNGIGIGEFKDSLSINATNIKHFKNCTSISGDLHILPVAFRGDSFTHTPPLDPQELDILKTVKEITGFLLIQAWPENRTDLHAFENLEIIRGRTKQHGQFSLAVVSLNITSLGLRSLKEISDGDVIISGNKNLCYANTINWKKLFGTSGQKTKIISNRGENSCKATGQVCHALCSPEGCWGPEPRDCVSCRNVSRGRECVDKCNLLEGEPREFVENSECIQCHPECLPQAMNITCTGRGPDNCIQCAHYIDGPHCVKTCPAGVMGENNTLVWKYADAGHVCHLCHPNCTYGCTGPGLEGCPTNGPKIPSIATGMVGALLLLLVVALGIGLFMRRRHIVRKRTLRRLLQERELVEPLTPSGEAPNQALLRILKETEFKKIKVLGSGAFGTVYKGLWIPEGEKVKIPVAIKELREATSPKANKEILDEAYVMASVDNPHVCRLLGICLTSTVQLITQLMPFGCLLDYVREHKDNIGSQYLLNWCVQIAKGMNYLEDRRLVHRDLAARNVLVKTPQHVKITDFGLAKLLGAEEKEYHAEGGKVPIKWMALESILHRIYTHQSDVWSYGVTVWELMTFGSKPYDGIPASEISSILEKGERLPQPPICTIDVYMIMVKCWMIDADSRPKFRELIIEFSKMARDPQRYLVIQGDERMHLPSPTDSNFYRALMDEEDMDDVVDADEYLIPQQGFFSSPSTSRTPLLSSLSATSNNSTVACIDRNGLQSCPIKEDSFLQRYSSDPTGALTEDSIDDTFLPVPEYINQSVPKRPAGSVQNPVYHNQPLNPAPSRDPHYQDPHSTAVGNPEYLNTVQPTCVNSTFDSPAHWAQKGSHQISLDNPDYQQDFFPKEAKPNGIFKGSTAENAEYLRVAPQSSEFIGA

By IC50 is commonly meant the midpoint of a concentration-inhibition curve. In turn, `COc1cc2oc(-c3ccccc3)c(-c3c[nH]c4ccc(Br)cc34)c2cc1OC` [8aa, 5-Bromo-3-(5,6-dimethoxy-2-phenylbenzofuran-3-yl)-1H-indole] showed a half-inhibitory concentration (IC50) of 440 ± 20 nM.
